Source: patent US6994954B2, “System for organ and tissue preservation and hypothermic blood substitution” (Organ Recovery Systems, Inc., priority 2000, dated 2006)

How the values were obtained:
[1] = tested on: A10 smooth muscle cells; experiment: Cryopreservation of A10 cells with DMSO in vehicle solution, Alamar Blue; type: cell-based; details: freezing and thawing
Protocol: (§1) The same system as that described above for cells in microtiter plates was used to evaluate a preferred embodiment of the exemplary High-K Intracellular-base solution as a new carrier solution for cryoprotective additives (CPA). Specifically, a phosphate-free formulation of the new High-K solution was prepared to avoid the known precipitation of divalent cation phosphates in the presence of the cryoprotectant DMSO at low temperatures. Cell survival was compared after freezing and thawing in the presence of a range of concentrations of DMSO prepared in either the new phosphate-free HK-cryoprotectant vehicle solution (HK-CV), or EuroCollins medium. EuroCollins is an organ preservation solution that has also been used in the field of cryobiology as a vehicle solution for cryoprotectants.
(§2) Cells were plated at 2×10^4 cells/well and after overnight incubation regular culture medium was replaced with the experimental CPA mixtures using the following protocol: Plates were cooled to −80° C. at a controlled rate (1° C./min) and stored overnight at −135° C. The plates were thawed using a two-step warming protocol and the CPA was diluted using mannitol as an osmotic buffer. Cell viability was assessed using the Alamar Blue assay of cellular metabolic activity at 37° C. FIGS. 15 and 16 show the comparative viability of two cell types after cryopreservation in the respective media. […]

[2] = tested on: bovine corneal endothelial (BCE) cells; experiment: Cryopreservation of BCE cells with DMSO in vehicle solution, Alamar Blue; type: cell-based; details: freezing and thawing
Protocol: as §1, §2

C[S+](C)[O-] [DMSO, Dimethylsulfoxide]
DMSO concentration giving optimum survival [1]: 1 to 2 M
DMSO concentration giving optimum survival [2]: 1 to 2 M
